This test deals with emetic effect of apomorphine. The test is described as follows: Antiemetic activity (IM) against apomorphine-induced emesis in unanesthetized dogs, ED50. Particulars: for ED50: Canis lupus familiaris. The class given is in vivo. How it is done:
Description of this invention will therefore be made with especial emphasis on 4-(p-fluorobenzoyl)-1-[3-(p-fluorobenzoyl)propyl]piperidine hydrochloride, it being understood that the principles and practices involved are applicable to the other compounds of the formula first hereinabove set forth. The antiemetic activity of the compounds was determined by the following standard pharmacological tests.
The compounds were administered intramuscularly (IM) to unanesthetized dogs in the caudal muscles (left hind leg) and thirty minutes later they received apomorphine hydrochloride (0.1 mg./kg. s.c.). The compounds were administered in micrograms (mcg.) at several dose levels and the percent reduction in frequency of emesis relative to controls determined. From the data the ED50 in micrograms was determined.

[1] abbreviates: IM, unanesthetized dogs, 30 minutes before apomorphine hydrochloride 0.1 mg/kg s.c., reduction in frequency of emesis relative to controls, read-out: ED50 and 95% Confidence Limits.

Where a name gives a salt, the structure may show the parent alone. Read-outs that look alike come from different tables or passages of the source.

For the molecule `O=C(CCCN1CCC(C(=O)c2ccc(Cl)cc2)CC1)c1ccc(Cl)cc1` [Example 4, 4-(p-chlorobenzoyl)-1-[3-(p-chlorobenzoyl)propyl]piperidine Hydrochloride], the “ED50 and 95% Confidence Limits (Estimated Values)” value (IM, unanesthetized dogs, 30 minutes before apomorphine hydrochloride 0.1 mg/kg s.c., footnote a: estimated values) is recorded as ~1401.0 (796-2468) mcg/kg. As a reminder, the ED50 is the dose at which the effect has come halfway, by size or by number of responders. Turning to `O=C(CCCN1CCC(C(=O)c2ccc(Cl)cc2)CC1)c1ccc(F)cc1` [Example 3, 4-(p-Chlorobenzoyl)-1-[3-(p-fluorobenzoyl)propyl]piperidine Hydrochloride], the ED50 under setting [1] was determined as 0.077 mg/kg. In the case of `O=C(CCCN1CCC(C(O)c2ccc(F)cc2)CC1)c1ccc(F)cc1` (stereo not drawn) [Example 9, 4-(p-Fluoro-α-hydroxybenzyl)-1-[3-(p-fluorobenzoyl)propyl]piperidine], the ED50 (im, read-out: ED50 and 95% Confidence Limits) amounted to 0.132 mg/kg. For the molecule `OC(CCCN1CCC(C(O)c2ccc(F)cc2)CC1)c1ccc(F)cc1` (stereo not drawn) [Example 10, 4-(p-Fluoro-α-hydroxybenzyl)-1-[3-(p-fluoro-α-hydroxy)propyl]piperidine], where the note is “IM, unanesthetized dogs, 30 minutes before apomorphine hydrochloride 0.1 mg/kg s.c., footnote b: graphic estimate, vehicle 80% polyethylene glycol 300 and 20% water, read-out: ED50 (value obtained from a graphic estimate)”, the ED50 was approximately 1 mg/kg. With `O=C(CCCN1CCC(C(=O)c2ccc(F)cc2)CC1)c1ccc(Cl)cc1` [Example 2, 4-(p-Fluorobenzoyl)-1-[3-(p-chlorobenzoyl)propyl]piperidine Hydrochloride], the ED50 under setting [1] came out at 0.06 mg/kg. As to `O=C(CCCN1CCC(C(=O)c2ccc(F)cc2)CC1)c1ccc(F)cc1` [Example 1, 4-(p-Fluorobenzoyl)-1-[3-(p-fluorobenzoyl)propyl]piperidine Hydrochloride], the median effective dose (ED50) under setting [1] was found to be 0.0083 mg/kg.

These data come from US4101662A, “Method for inhibiting emesis and compositions therefor” (priority 1973, dated 1978).
